Entries after “also recorded” stand apart in the source; their conditions may differ. Read-outs that look alike come from different tables or passages of the source.
Legend:
MM043 melanoma cell line [1] = experiment: Cell proliferation, crystal violet assay, MM043; conditions: for IC10 / CI (combination index): MM043; for IC10: 10% growth reduction; for CI (combination index): PI3K inhibitor at IC10 in combination with vemurafenib
MM074 melanoma cell line [2] = experiment: Cell proliferation, crystal violet assay, MM074; conditions: for IC10: 10% growth reduction
[3] = test system: MM074-R melanoma cell line; conditions: 10% growth reduction
[4] = test system: key proteins of MAPK and p53/PI3K/AKT pathways; experiment: Western blot analysis, MM043 cells; assay type: cell-based, human; conditions: MM043, Western blotting
Description: (§1) Cells were plated in Petri dishes (3×10^6 cells/dish) in culture medium. […] Then, cells were exposed or not to effectors for 30 minutes or 24 hours. Cells were lysed using a detergent cocktail (M-PER Mammalian Extraction Buffer) supplemented with protease inhibitors (Halt Protease Inhibitor Cocktail) and phosphatase inhibitors (Halt Phosphatase Inhibitor Cocktail) (all from Pierce, Rockford, Ill., USA). Protein concentrations were determined by the BCA Protein Assay (Pierce) using bovine serum albumin as the standard. Equal amounts of extracted proteins (35 μg) were subjected to 10 or 12% SDS-PAGE and electrotransferred onto nitrocellulose membranes using iBlot® Dry Blotting System (Invitrogen, Life Technologies, Gent, Belgium). Immunodetections were performed using antibodies raised against ^V600EBRAF (VE1, 1/1000) (from Spring Bioscience, Pleasanton, Calif., USA), pBRAF (Ser 445) (1/1000), pCRAF (Ser 338) (1/1000), CRAF (1/1000), p110α (C73F8, 1/1000), PTEN (138G6, 1/1000), pAKT (Ser 473) (D9E, 1/500), AKT (40D4, 1/1000), p21 (12D1, 1/1000) and p53 Ser15 (16G8) (all from Cell Signaling Technology, Danvers, Mass., USA), BRAF (F-7, 1/200), pERK (Tyr 204) (E-4, 1/1000), ERK2 (C-14, 1/2000), p53 (DO-1, 1/200) and MDM2 (SMP14, 1/200) (all from Santa Cruz Biotechnology, Santa Cruz, Calif., USA), and MDM4 (8C6, 1/1000), […]-actin (C4, 1/5000) (from Millipore, Temecula, Calif., USA). Peroxidase-labeled anti-rabbit IgG antibody (1/5000) or peroxidase-labeled anti-mouse IgG antibody (1/5000) (both from Amersham Pharmacia Biotech, Roosendaal, The Netherlands) were used as secondary reagents to detect corresponding primary antibodies. […] Immunostaining signals were digitalized with a PC-driven LAS-3000 CCD camera (Fujifilm, Tokyo, Japan), using a software specifically designed for image acquisition (Image Reader, Raytest®, Straubenhardt, Germany). Immunoreactive band intensities were quantified using the software AIDA® Image Analyser 3.45 (Raytest®).

[5] = test system: key proteins of MAPK and p53/PI3K/AKT pathways; experiment: Western blot analysis, MM074 cells; assay type: cell-based, human; conditions: MM074, Western blotting
Description: as §1

MM074 melanoma cell line [6] = experiment: Apoptosis determination (annexin V), MM074; assay type: cell-based, human
MM043 melanoma cell line [7] = experiment: Apoptosis determination (annexin V), MM043; assay type: cell-based, human
MM043 xenografts = experiment: Human melanoma xenografts, MM043; assay type: in vivo, mice
Description: (§2) Mice were injected subcutaneously (right and left flank) with 5×10^6 MM074 (vemurafenib sensitive), MM043 (with intrinsic resistance) or MM074-R cells (with acquired resistance) in 200 μl of 50% Matrigel (from Trevigen, Gaithersburg, Md.) in saline. When tumors reached 200 mm^3, mice were randomized into groups of 8 and daily intraperitoneally injected with vehicle, 45 mg/kg vemurafenib, 50 mg/kg PRIMA-1^Met or vemurafenib plus PRIMA-1^Met. […] Tumor volumes were calculated using the formula (L×W×W)/2 (Ji Z et al., 2013, Clin Cancer Res Off J Am Assoc Cancer Res. 19(16):4383-4391), in which L is the length and W is the width as measured with a vernier calliper.
(§3) The sensitive melanoma cells (MM074) xenografts were used as control. After subcutaneous cell injection, tumor growth was monitored to reach volumes of about 200 mm^3.

[8] = test system: key proteins of MAPK and p53/PI3K/AKT pathways; experiment: Western blot analysis, MM074-R cells; assay type: cell-based, human; conditions: Western blotting, 50 and 75 μM for 24 hours
Description: as §1

[9] = test system: ERK and AKT phosphorylation; experiment: Western blot, ERK and AKT phosphorylation in panel of vemurafenib-resistant lines; assay type: cell-based, human
Description: Representative Western blots illustrating the evolution of (A) ERK and (B) AKT phosphorylation in melanoma cells exposed to increasing concentrations of vemurafenib (0.1, 1 and 10 μM) for 24 hours. Ratio of phosphorylated protein over total protein were calculated from densitometry evaluation.
Cells were plated in Petri dishes (3×10^6 cells/dish) in culture medium. […] Then, cells were exposed or not to effectors for 30 minutes or 24 hours. Cells were lysed using a detergent cocktail (M-PER Mammalian Extraction Buffer) supplemented with protease inhibitors (Halt Protease Inhibitor Cocktail) and phosphatase inhibitors (Halt Phosphatase Inhibitor Cocktail) (all from Pierce, Rockford, Ill., USA). Protein concentrations were determined by the BCA Protein Assay (Pierce) using bovine serum albumin as the standard. Equal amounts of extracted proteins (35 μg) were subjected to 10 or 12% SDS-PAGE and electrotransferred onto nitrocellulose membranes using iBlot® Dry Blotting System (Invitrogen, Life Technologies, Gent, Belgium). […] Immunostaining signals were digitalized with a PC-driven LAS-3000 CCD camera (Fujifilm, Tokyo, Japan), using a software specifically designed for image acquisition (Image Reader, Raytest®, Straubenhardt, Germany). Immunoreactive band intensities were quantified using the software AIDA® Image Analyser 3.45 (Raytest®).

MM074 xenografts = experiment: Human melanoma xenografts, MM074; assay type: in vivo, mice
Description: as §2, §3

MM050 melanoma cell line = experiment: Cell proliferation, crystal violet assay, MM050; assay type: cell-based; conditions: Homo sapiens, V600E, read-out: IC50 (μM) vemurafenib
Description: (§4) Cells were distained under running tap water and subsequently lysed with 0.2% Triton X-100 for 90 minutes (v/v in water).
(§5) The IC50 and IC10 values represent the inhibitory concentrations producing, respectively, 50% and 10% growth reduction and were calculated from dose response curves using GraphPad Prism software (GraphPad Software, La Jolla, Calif., USA).

MM032 melanoma cell line = experiment: Cell proliferation, crystal violet assay, MM032; assay type: cell-based; conditions: Homo sapiens, V600E, read-out: IC50 (μM) vemurafenib
Description: as §4, §5
(§6) CI values between 0.9 and 1.1 indicates an additive effect; values between 0.7 and 0.9, a moderate synergism; values lower than 0.7, a strong synergism; and antagonism is represented by CI values higher than 1.1.

[10] = test system: panel of V600E/K BRAF melanoma cell lines; experiment: Cell proliferation and apoptosis in panel of V600E/K BRAF melanoma cell lines; conditions: Homo sapiens
MM070 melanoma cell line = experiment: Cell proliferation, crystal violet assay, MM070; assay type: cell-based; conditions: Homo sapiens, V600E, read-out: IC50 (μM) vemurafenib
Description: as §4, §5

[11] = test system: MM074-R melanoma cell line; experiment: cells; conditions: Homo sapiens, read-out: IC50 (μM) vemurafenib
MM029 melanoma cell line = experiment: Cell proliferation, crystal violet assay, MM029; assay type: cell-based; conditions: Homo sapiens, V600K, read-out: IC50 (μM) vemurafenib
Description: as §4, §5, §6

MM034 melanoma cell line = experiment: Cell proliferation, crystal violet assay, MM034; assay type: cell-based; conditions: Homo sapiens, V600E, read-out: IC50 (μM) vemurafenib
Description: as §4, §5

MM054 melanoma cell line = experiment: Cell proliferation, crystal violet assay, MM054; assay type: cell-based; conditions: Homo sapiens, V600E, read-out: IC50 (μM) vemurafenib
Description: as §4, §5, §6

MM133 melanoma cell line = experiment: Cell proliferation, crystal violet assay, MM133; assay type: cell-based; conditions: Homo sapiens, V600K, read-out: IC50 (μM) vemurafenib
Description: as §4, §5, §6

melanoma = conditions: ipilimumab only group, 9 of 15 responders; cited from earlier work
[12] = Homo sapiens, read-out: IC50 (μM) vemurafenib

O=c1cc(N2CCOCC2)oc2c(-c3ccccc3)cccc12 [LY294002]
IC10 (MM043 melanoma cell line [1]): 5 µM | CI (combination index) (MM043 melanoma cell line [1]): 0.56 | IC10 (MM074 melanoma cell line [2]; MM074): 5 µM | IC10 [3]: 5 µM

COc1ccc(-c2cc3c(C)nc(N)nc3n([C@H]3CC[C@H](OCCO)CC3)c2=O)cn1 [PF-04691502]
IC10 (MM043 melanoma cell line [1]): 0.1 µM | CI (combination index) (MM043 melanoma cell line [1]): 0.64 | AKT phosphorylation [4]: inhibited | IC10 (MM074 melanoma cell line [2]; MM074): 0.1 µM | cell proliferation (MM074 melanoma cell line [2]; MM074, PI3K inhibitor at IC10 in combination with increasing concentrations of vemurafenib): not significantly affected | AKT phosphorylation [5]: inhibited | apoptosis (annexin V-positive cells) (MM074 melanoma cell line [6]; MM074, PI3K inhibitor at IC10 in combination with vemurafenib, 2 days): increased | IC10 [3]: 0.1 µM | apoptosis (annexin V-positive cells) (MM043 melanoma cell line [7]; MM043, PI3K inhibitor at IC10 in combination with vemurafenib, 2 days): significant increase in apoptosis

COCC1(CO)C(=O)C2CCN1CC2 (centres unmarked) [PRIMA-1^Met, 2-hydroxymethyl-2-methoxymethylazabicyclo[2.2.2]octan-3-one]
mean tumor volume (MM043 xenografts; after 20 days of treatment): 1080 mm^3 | AKT phosphorylation [4]: inhibited AKT phosphorylation; also recorded: inhibition of p110α expression and AKT phosphorylation | PTEN expression [4]: stimulated PTEN expression; also recorded: increase in PTEN levels | p53 expression / p53 pathway [4]: restored p53 expression; also recorded: activation of the p53 pathway | p110α expression [4]: inhibition of p110α expression and AKT phosphorylation | AKT phosphorylation [5]: inhibition of p110α expression and AKT phosphorylation | PTEN expression [5]: increase in PTEN levels | p110α expression [5]: inhibition of p110α expression and AKT phosphorylation | IC10 [3]: 40 µM | AKT phosphorylation [8]: decrease of p110α expression and AKT phosphorylation | p21 and PTEN levels [8]: upregulation of p21 and PTEN levels | p53 expression and phosphorylation [8]: dose-dependent increase of p53 expression and phosphorylation | p110α expression [8]: decrease of p110α expression and AKT phosphorylation

CCCS(=O)(=O)Nc1ccc(F)c(C(=O)c2c[nH]c3ncc(-c4ccc(Cl)cc4)cc23)c1F [vemurafenib, N-(3-{[5-(4-chlorophenyl)-1H-pyrrolo[2,3-b]pyridin-3-yl]carbonyl}-2,4-difluorophenyl)propane-1-sulfonamide]
tumor growth (MM043 xenografts; 45 mg/kg vemurafenib and/or 50 mg/kg PRIMA-1^Met daily IP): did not significantly affected tumor growth | mean tumor volume (MM043 xenografts; after 28 days of treatment): ~1130 mm^3 | pERK ([9]; all resistant lines, 24 hours): similarly inhibited in a concentration-dependent manner | pAKT ([9]; resistant lines MM032, MM043 and MM133, 24 hours): unaffected in three out of five resistant lines | IC50 (MM043 melanoma cell line [1]; [12]): 20 µM | average tumor volume (MM074 xenografts; 28 days, 45 mg/kg daily intraperitoneally): ~190 mm3 | tumor growth (MM074 xenografts; as of day 4 after starting treatment): inhibited tumor growth | IC50 (MM050 melanoma cell line): 0.1 µM | IC50 (MM032 melanoma cell line): 2 µM | AKT phosphorylation [4]: neither AKT phosphorylation nor PTEN expression were affected | PTEN expression [4]: neither AKT phosphorylation nor PTEN expression were affected | ERK phosphorylation (pERK) ([4]; 24 hours): similarly inhibited | IC50 (MM074 melanoma cell line [2]; [12]): 0.1 µM | AKT phosphorylation [5]: strongly inhibited | PTEN expression [5]: concentration-dependent increase of PTEN expression | ERK phosphorylation (pERK) ([5]; 24 hours): similarly inhibited | apoptosis (annexin V-positive cells) (MM074 melanoma cell line [6]; MM074, 2 days): induces apoptosis | IC50 ([10]; read-out: IC50, cell lines found to be resistant): > 10 µM | IC50 ([10]; read-out: IC50, cell lines found to be sensitive): ≤ 2 µM | IC50 (MM070 melanoma cell line): 0.05 µM | IC50 [11]: 20 µM | apoptosis (annexin V-positive cells) (MM043 melanoma cell line [7]; MM043, 2 days): no apoptosis is detected | IC50 (MM029 melanoma cell line): 30 µM | IC50 (MM034 melanoma cell line): 0.1 µM | IC50 (MM054 melanoma cell line): 40 µM | IC50 (MM133 melanoma cell line): 2 µM

ipilimumab: an antibody raised against CTLA-4 molecule on T-cells
responders who maintained an objective response for at least 2 years (melanoma): 60%

— patent publication US20170165240A1, “NEW STRATEGIES FOR TREATING MELANOMA” (Université Libre de Bruxelles, priority 2014, published 2017)
